Experimental data as given in ChEMBL document CHEMBL3396992, “Synthesis and biological evaluation of pyrazolylthiazole carboxylic acids as potent anti-inflammatory-antimicrobial agents” (2015).
In brackets after ≈: the same amount, converted by molar mass. Activity calls are given as the source filed them. The calls are words filed in the database; no cut-off is given here.

Legend:
Saccharomyces cerevisiae [1] = assay: Antimicrobial activity against Saccharomyces cerevisiae MTCC 170 assessed as growth inhibition at 4 mg/ml after 24 hrs by agar well diffusion method; format: functional; conditions: for zone of inhibition at 4000 µg/mL: MTCC 170, 24 h, read-out: DIZ
Rattus norvegicus [2] = assay: Antiinflammatory activity against carrageenan-induced paw edema male Wistar albino rat at 50 mg/kg, ip administered 30 mins prior to carrageenan-challenge measured after 1 hr relative to control; format: functional; conditions: route intraperitoneal
Rattus norvegicus [3] = assay: Antiinflammatory activity against carrageenan-induced paw edema male Wistar albino rat at 50 mg/kg, ip administered 30 mins prior to carrageenan-challenge measured after 3 hrs relative to control; format: functional; conditions: route intraperitoneal
Staphylococcus aureus [4] = assay: Antimicrobial activity against Staphylococcus aureus MTCC 96 assessed as growth inhibition after 24 hrs by agar well diffusion method; format: functional
Escherichia coli = assay: Antimicrobial activity against Escherichia coli MTCC 1652 assessed as growth inhibition at 4 mg/ml after 24 hrs by agar well diffusion method; format: functional, organism-based
Candida albicans [5] = assay: Antimicrobial activity against Candida albicans MTCC 3017 assessed as growth inhibition after 24 hrs by agar well diffusion method; format: functional; conditions: MTCC 3017, 24 h
Rattus norvegicus [6] = assay: Antiinflammatory activity against carrageenan-induced paw edema male Wistar albino rat at 50 mg/kg, ip administered 30 mins prior to carrageenan-challenge measured after 2 hrs relative to control; format: functional; conditions: route intraperitoneal
Pseudomonas aeruginosa = conditions: MTCC 741, 4 mg/ml
Description: Antimicrobial activity against Pseudomonas aeruginosa MTCC 741 assessed as growth inhibition at 4 mg/ml after 24 hrs by agar well diffusion method

Rattus norvegicus [7] = assay: Antiinflammatory activity against carrageenan-induced paw edema male Wistar albino rat assessed as edema volume at 50 mg/kg, po administered 30 mins prior to carrageenan-challenge measured after 1 hr (reference value: 1.11 +/- 0.12 mL); format: functional
Bacillus subtilis [8] = assay: Antimicrobial activity against Bacillus subtilis MTCC 121 assessed as growth inhibition at 4 mg/ml after 24 hrs by agar well diffusion method; format: functional; conditions: for zone of inhibition at 4000 µg/mL: MTCC 121, 24 h, read-out: DIZ
Bacillus subtilis [9] = assay: Antimicrobial activity against Bacillus subtilis MTCC 121 assessed as growth inhibition after 24 hrs by agar well diffusion method; format: functional
Candida albicans [10] = assay: Antimicrobial activity against Candida albicans MTCC 3017 assessed as growth inhibition at 4 mg/ml after 24 hrs by agar well diffusion method; format: functional; conditions: MTCC 3017, 24 h, read-out: DIZ
Rattus norvegicus [11] = assay: Antiinflammatory activity against carrageenan-induced paw edema male Wistar albino rat at 50 mg/kg, ip administered 30 mins prior to carrageenan-challenge measured after 4 hrs relative to control; format: functional; conditions: route intraperitoneal
Rattus norvegicus [12] = assay: Antiinflammatory activity against carrageenan-induced paw edema male Wistar albino rat assessed as edema volume at 50 mg/kg, ip administered 30 mins prior to carrageenan-challenge measured after 4 hrs (reference value: 1.88 +/- 0.20 mL); format: functional; conditions: route intraperitoneal
Staphylococcus aureus [13] = assay: Antimicrobial activity against Staphylococcus aureus MTCC 96 assessed as growth inhibition at 4 mg/ml after 24 hrs by agar well diffusion method; format: functional; conditions: for zone of inhibition at 4000 µg/mL: MTCC 96, 24 h, read-out: DIZ
Saccharomyces cerevisiae [14] = assay: Antimicrobial activity against Saccharomyces cerevisiae MTCC 170 assessed as growth inhibition after 24 hrs by agar well diffusion method; format: functional
Rattus norvegicus [15] = assay: Antiinflammatory activity against carrageenan-induced paw edema male Wistar albino rat assessed as edema volume at 50 mg/kg, ip administered 30 mins prior to carrageenan-challenge measured after 2 hrs (reference value: 1.21 +/- 0.16 mL); format: functional; conditions: route intraperitoneal
Rattus norvegicus [16] = assay: Antiinflammatory activity against carrageenan-induced paw edema male Wistar albino rat assessed as edema volume at 50 mg/kg, ip administered 30 mins prior to carrageenan-challenge measured after 3 hrs (reference value: 1.73 +/- 0.09 mL); format: functional; conditions: route intraperitoneal

Compound | zone of inhibition at 4000 µg/mL (Saccharomyces cerevisiae [1]) [mm] | Activity (Rattus norvegicus [2]) [%] | Activity (Rattus norvegicus [3]) [%] | MIC (Staphylococcus aureus [4]) | diameter of the inhibition zone (DIZ) (Escherichia coli) | MIC (Candida albicans [5]) [µg/mL] | Activity (Rattus norvegicus [6]) [%] | DIZ (Pseudomonas aeruginosa) | Activity (Rattus norvegicus [7]) [mL] | zone of inhibition at 4000 µg/mL (Bacillus subtilis [8]) [mm] | MIC (Bacillus subtilis [9]; MTCC 121, 24 h) [µg/mL] | zone of inhibition at 4000 µg/mL (Candida albicans [10]) [mm] | Activity (Rattus norvegicus [11]) [%] | Activity (Rattus norvegicus [12]) [mL] | diameter of the inhibition zone (DIZ) (Staphylococcus aureus [13]) | MIC (Saccharomyces cerevisiae [14]; MTCC 170, 24 h) [µg/mL] | Activity (Rattus norvegicus [15]) [mL] | Activity (Rattus norvegicus [16]) [mL] | diameter of the inhibition zone (DIZ) (Saccharomyces cerevisiae [1]) | MIC (Saccharomyces cerevisiae [14]) | other results
COc1ccc(-c2nc(-c3cn(-c4ccccc4)nc3-c3ccc(Cl)cc3)sc2C(=O)O)cc1 | 12 | 86.48 | 90.75 | inactive | inactive | 12.5 (≈ 25.6 µM) | 89.29 | inactive | 0.15 | 18.3 | 25 (≈ 51.2 µM) | 25.3 | 88.82 | 0.21 | inactive | 50 (≈ 102 µM) | 0.19 | 0.16 | – | – | –
COc1ccc(-c2nn(-c3ccccc3)cc2-c2nc(-c3ccc(OC)cc3)c(C(=O)O)s2)cc1 | 13.3 | 82.88 | 88.43 | – | inactive | 50 (≈ 103 µM) | 86.77 | inactive | 0.13 | 16.3 | 50 (≈ 103 µM) | 13 | 89.89 | 0.19 | – | 50 (≈ 103 µM) | 0.24 | 0.2 | – | – | MIC (Staphylococcus aureus [4]; MTCC 96, 24 h): 50 µg/mL (≈ 103 µM); zone of inhibition at 4000 µg/mL (Staphylococcus aureus [13]): 16.3 mm
O=C(O)c1sc(-c2cn(-c3ccccc3)nc2-c2ccccc2)nc1-c1ccc(Cl)cc1 | 20.6 | 87.38 | 88.43 | – | inactive | 50 (≈ 109 µM) | 82.64 | inactive | 0.14 | 17.6 | 50 (≈ 109 µM) | 17.6 | 88.29 | 0.22 | – | 25 (≈ 54.6 µM) | 0.21 | 0.2 | – | – | MIC (Staphylococcus aureus [4]; MTCC 96, 24 h): 25 µg/mL (≈ 54.6 µM); zone of inhibition at 4000 µg/mL (Staphylococcus aureus [13]): 21 mm
CCOC(=O)c1sc(-c2cn(-c3ccccc3)nc2-c2ccc(Cl)cc2)nc1-c1ccc(OC)cc1 | – | 90.99 | 85.54 | inactive | inactive | 50 (≈ 96.9 µM) | 71.07 | inactive | 0.1 | 15.3 | 50 (≈ 96.9 µM) | 15.3 | 88.92 | 0.21 | inactive | – | 0.35 | 0.25 | inactive | inactive | –
COc1ccc(-c2nc(-c3cn(-c4ccccc4)nc3-c3ccc(F)cc3)sc2C(=O)O)cc1 | 15.3 | 80.18 | 67.63 | – | inactive | 50 (≈ 106 µM) | 66.94 | inactive | 0.22 | 14.6 | 50 (≈ 106 µM) | 15.3 | 80.85 | 0.36 | – | 50 (≈ 106 µM) | 0.4 | 0.56 | – | – | MIC (Staphylococcus aureus [4]; MTCC 96, 24 h): 25 µg/mL (≈ 53 µM); zone of inhibition at 4000 µg/mL (Staphylococcus aureus [13]): 20.6 mm
CCOC(=O)c1sc(-c2cn(-c3ccccc3)nc2-c2ccc(Cl)cc2)nc1-c1ccccc1 | – | 89.89 | 81.5 | inactive | inactive | 50 (≈ 103 µM) | 81.81 | inactive | 0.12 | 12 | 50 (≈ 103 µM) | 16 | 85.1 | 0.28 | inactive | – | 0.22 | 0.32 | inactive | inactive | –
CCOC(=O)c1sc(-c2cn(-c3ccccc3)nc2-c2ccc(OC)cc2)nc1-c1ccc(F)cc1 | – | 83.78 | 82.08 | inactive | inactive | 12.5 (≈ 25 µM) | 85.12 | inactive | 0.18 | 20.6 | 25 (≈ 50 µM) | 24.6 | 80.31 | 0.37 | inactive | – | 0.18 | 0.31 | inactive | inactive | –
CCOC(=O)c1sc(-c2cn(-c3ccccc3)nc2-c2ccc(F)cc2)nc1-c1ccc(F)cc1 | – | 85.58 | 81.5 | inactive | inactive | 12.5 (≈ 25.6 µM) | 79.33 | inactive | 0.16 | 15.6 | 50 (≈ 103 µM) | 22.6 | 87.76 | 0.23 | inactive | – | 0.25 | 0.32 | inactive | inactive | –
CCOC(=O)c1sc(-c2cn(-c3ccccc3)nc2-c2ccc(F)cc2)nc1-c1ccc(Cl)cc1 | – | 84.68 | 80.34 | inactive | inactive | 50 (≈ 99.2 µM) | 81.81 | inactive | 0.17 | – | – | 17.6 | 86.17 | 0.26 | inactive | – | 0.22 | 0.34 | inactive | inactive | diameter of the inhibition zone (DIZ) (Bacillus subtilis [8]): inactive; MIC (Bacillus subtilis [9]): inactive
O=C(O)c1sc(-c2cn(-c3ccccc3)nc2-c2ccccc2)nc1-c1ccccc1 | 23.6 | 87.37 | 83.81 | – | inactive | 50 (≈ 118 µM) | 67.76 | inactive | 0.24 | 18.6 | 25 (≈ 59 µM) | 17.6 | 84.04 | 0.3 | – | 12.5 (≈ 29.5 µM) | 0.39 | 0.28 | – | – | MIC (Staphylococcus aureus [4]; MTCC 96, 24 h): 12.5 µg/mL (≈ 29.5 µM); zone of inhibition at 4000 µg/mL (Staphylococcus aureus [13]): 24.6 mm
CCOC(=O)c1sc(-c2cn(-c3ccccc3)nc2-c2ccccc2)nc1-c1ccc(OC)cc1 | – | 80.18 | 86.12 | inactive | inactive | 50 (≈ 104 µM) | 76.03 | inactive | 0.22 | 13.6 | 50 (≈ 104 µM) | 16.3 | 81.91 | 0.34 | inactive | – | 0.29 | 0.24 | inactive | inactive | –
O=C(O)c1sc(-c2cn(-c3ccccc3)nc2-c2ccc(Cl)cc2)nc1-c1ccc(Cl)cc1 | 24.6 | 76.57 | 75.14 | inactive | inactive | 12.5 (≈ 25.4 µM) | 80.99 | inactive | 0.26 | 16.6 | 50 (≈ 102 µM) | 23.6 | 85.1 | 0.28 | inactive | 12.5 (≈ 25.4 µM) | 0.23 | 0.43 | – | – | –
